Source: patent US20030050236A1, “Compounds that enhance tumor death” (The University of Chicago, priority 2000, published 2003)
Counter-ions that a name gives are not always drawn. Like-named read-outs stand apart in the source and are kept apart here. *1 amine or outer side, *2 acyl side, *3 side chain or, on linkers, in order; H or OH if unused. Where a SMILES comes first, the peptide text is derived from it. Bridges are numbered along the chain shown (N, C = ends). Roman numbers before positions name the chains, in order. Where no end group is shown, it is not given here. [ ]: non-standard residue; d: D form. Actinocin(9to1) = Cc1c2oc3c(C)ccc(C(=O)[*:1])c3nc-2c(C(=O)[*:2])c(N)c1=O; NMeV = CN[C@H](C(=O)O)C(C)C; Dap = NC[C@H](N)C(=O)O; Sar = CNCC(=O)O

Key:
[1] = cited from earlier work; for fraction of dose excreted / recovered in the urine: unchanged, intact or active drug
[2] = tested on: H-Ras- and N-Ras-encoded p21s; settings: cited from earlier work
[3] = tested on: HOG cells, human oligodendroglioma cells; experiment: Killing of HOG cells, MTT assay; format: cell-based; settings: 24 hours
Method: The relative potency of DAP1 compared to DAP1 ketoamide (DAP-KA) in killing cells was evaluated. HOG cells, human oligodendroglioma cells, were exposed for 24 hours to a) DAP1 or DAP-KA (FIG. 15A) or […] etoposide and either DAP 1 or DAP-KA (FIG. 15B). The concentration of etoposide was chosen to give 50% killing as measured by MTT assay.

PPT1 [4] = molecular target: T1, PPT1 (Homo sapiens, UniProt P50897); experiment: In vitro PPT1 activity assay, [14C]palmitoyl peptide substrates, cell extract
T1 sequence (P50897 28-306): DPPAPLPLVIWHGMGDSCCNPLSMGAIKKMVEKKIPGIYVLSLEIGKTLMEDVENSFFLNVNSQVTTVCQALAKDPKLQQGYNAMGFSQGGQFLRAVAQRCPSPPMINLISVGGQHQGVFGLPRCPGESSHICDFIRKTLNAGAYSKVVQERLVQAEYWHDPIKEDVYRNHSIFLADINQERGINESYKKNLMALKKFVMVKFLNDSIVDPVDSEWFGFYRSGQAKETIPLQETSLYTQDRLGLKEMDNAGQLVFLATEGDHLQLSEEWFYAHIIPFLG
Method: Incubations were performed for 20 min at 37° C. and reactions terminated by addition of 1 ml of chloroform/methanol/2N HCl (2:1:0.06, v/v). After the centrifugation, organic phase was analyzed by HPTLC using n-butanol/pyridine/acetic acid/water (45:30:9:36, v/v) and [14C] palmitate release was quantified.
The peptide sequence, AcGCVKIKK (a palmitoylation site in K-Ras), was modified by substituting the SH group of cysteine with NH2 to generate diamino propionic acid, which was then acylated with palmitate (AcG-palmitoyl diamino propionate-VKIKK). […] In another set of experiments, the unmodified peptide itself (AcGCVKIKK) was used as a control to exclude the possibility of a nonspecific effect of the sequence on PPT activity.
In brief, the cell sonicate was incubated in the assay mixture containing 50 mM sodium citrate (pH 4.0) and IRY([^4C]palmitoylated)CWLRR octapeptide (2,000-4,000 cpm) for 20 min at 37° C. For the pH profile of PPT1 activity, 50 mM sodium citrate (pH 5 or 6) or 50 mM Tris-HCl (pH 7.4) was used with other conditions remaining the same. After addition of 1 ml of chloroform/methanol/2N HCl (2:1:0.06, by volume) and centrifugation, the organic phase was dried, reconstituted sample analyzed by HPTLC using n-butanol/pyridine/acetic acid/water (45:30:9:36, by volume) and the radioactive spot corresponding to [^14C] palmitate was counted.
PPT1 activity was measured as described above. In brief, the cell sonicate was incubated in the assay mixture (50 mM sodium citrate (pH 4.0) for [^14C]palmitoylated [sequence] Po peptide substrate (3,000-4,000 cpm) or 50 mM Tris (pH 7.4) for [^14C]palmitoylated MLCCMRR GAP43 peptide substrate) for 20 min at 37° C. After organic extraction, samples were analyzed by HPTLC using n-butanol/pyridine/acetic acid/water (45:30:9:36, by volume) and the radioactive spot corresponding to [^14C] palmitate was counted.

[5] = tested on: PPT1 overexpressing LA-N-5 cells; experiment: Cell death by MTT assay in PPT1 overexpressing cells; format: cell-based, human; settings: compared to LAN-5 cells
Method: Cells were plated in 24-well culture plates containing 500 μl media. After drug treatment, 50 μl MTT (5 mg/ml in PBS) was added and incubated for 20 min at 37° C. An aliquot of 500 μl of 10% sodium dodecyl sulfate in 0.01 N HCl was added. After incubating overnight, the absorbance at 570 nm was determined by spectrophotometry. Cell viability was calculated as percent cell survival by dividing absorbance [treatment-blank] by absorbance [control-blank], where treatment is the reading for the treated cells, control is for vehicle-treated cells and blank is for MTT added to the media without cells.
In order to further verify that the increased susceptibility to drug-induced apoptosis of the AS-PPT1 treated cells was due to compromised PPT1 activity, the extent of cell death induced by C2-ceramide treatment in control was compared to DAP 1-treated cells. Treatment of cells with DAP1 alone induced 5-10% death of cells at DAP1 concentrations up to 100 μM for 6 h., as measured by MTT assay (FIG. 10A). […] In these cells, neither C2-ceramide, DAP1 alone or DAP1 (100 μM) followed by C2-ceramide (30 μM) for 6 h induced more than 10% cell death (FIG. 10B).
LA-N-5 human neuroblastoma cells were grown in DMEM supplemented with 10% fetal bovine serum and 1% gentamicin. Clones of cells stably expressing PPT1 were selected and maintained by growing in media containing G418 (500 μg/ml) as described (Cho, et al., 2000b). Cell death was measured by the MTT method (Cho et al., 2000a; Cho et al., 2000b; Cho et al., 2000c).

[6] = multiple myeloma, oral administration; cited from earlier work
[7] = molecular target: T2, palmitoyl protein thioesterase 1 (PPT1) (human, UniProt P50897 28-306); experiment: cell-based or functional assay
T2 sequence: T1 sequence (P50897 28-306)

[8] = cited from earlier work
PPT1 [9] = molecular target: T1, PPT1; settings: cited from earlier work
[10] = tested on: LA-N-5 human neuroblastoma cells; experiment: Cell viability / cell death by MTT assay; format: cell-based; settings: LY-294002 30 μM, C2 ceramide 25 μM; 24 hrs
Method: LA-N-5 human neuroblastoma cells were grown in DMEM supplemented with 10% fetal bovine serum and 1% gentamicin. […] Cell death was measured by the MTT method (Cho et al., 2000a; Cho et al., 2000b; Cho et al., 2000c).

**Q.** Which “fraction of dose excreted / recovered in the urine” value [1] does the source give for Cc1c2oc3c(C)ccc(C(=O)N[C@@H]4C(=O)N[C@H](C(C)C)C(=O)N5CCC[C@H]5C(=O)N(C)CC(=O)N(C)[C@@H](C(C)C)C(=O)O[C@@H]4C)c3nc-2c(C(=O)N[C@@H]2C(=O)N[C@H](C(C)C)C(=O)N3CCC[C@H]3C(=O)N(C)CC(=O)N(C)[C@@H](C(C)C)C(=O)O[C@@H]2C)c(N)c1=O [Actinomycin D] (I: T[dV]P[Sar][NMeV] / II: T[dV]P[Sar][NMeV]; ester I:1-I:C, II:1-II:C; linker I:N-II:N via Actinocin(9to1)) here?
**A.** 10%

**Q.** Which “fraction of dose excreted / recovered in the urine” value [1] does the source give for CC[C@]1(O)C[C@@H]2CN(CCc3c([nH]c4ccccc34)[C@@](C(=O)OC)(c3cc4c(cc3OC)N(C)[C@H]3[C@@](O)(C(=O)OC)[C@H](OC(C)=O)[C@]5(CC)C=CCN6CC[C@]43[C@@H]65)C2)C1 [Vinblastine] here?
**A.** Approximately 15%

**Q.** For O=NN(CCCl)C(=O)NC1CCCCC1 [Lomustine, 1-(2-chloro-ethyl)-3-cyclohexyl-1 nitrosourea], which “radioactivity excreted as degradation products within 24 hours” value ([1]; oral, 30 mg/m^2 to 100 mg/m^2) is on record?
**A.** about half

**Q.** Which “palmitoylation of Ras p21s” value [2] does the source give for C/C=C/C/C=C/CCC(=O)[C@H]1O[C@H]1C(N)=O (relative stereo) [cerulenin, [2R, 3S]-2,3-epoxy-4-oxo-7,10-trans, trans-dodecadienamide] here?
**A.** able to inhibit the palmitoylation

**Q.** For “AcG-Dap((+/−)α-hydroxyhexadecanoyl)-VKIKK.amide (Ac-G[Dap]VKIKK-NH2; not fully specified (residue 2); printed as AcG-Dap((+/−)α-hydroxyhexadecanoyl)-VKIKK.amide) [DAP-KA]”, which “potency as inducer of cell death relative to DAP1” value ([3]; with etoposide) is on record?
**A.** more potent inducer of cell death than DAP1

**Q.** And the “potency as inhibitor relative to DAP1” value (PPT1 [4])?
**A.** more potent inhibitor than DAP1

**Q.** Which “susceptibility of PPT1 overexpressing cells to killing” value (“susceptibility” below) [5] does the source give for COc1cc([C@@H]2c3cc4c(cc3[C@@H](O[C@@H]3O[C@@H]5CO[C@@H](C)O[C@H]5[C@H](O)[C@H]3O)[C@H]3COC(=O)[C@H]23)OCO4)cc(OC)c1O [etoposide] here?
**A.** markedly decreased susceptibility to killing

**Q.** What about the “killing (MTT assay)” value ([3]; 10 mM etoposide) of the same molecule?
**A.** 50%

**Q.** Which “susceptibility” value [5] does the source give for COc1cccc2c1C(=O)c1c(O)c3c(c(O)c1C2=O)C[C@@](O)(C(C)=O)C[C@@H]3O[C@H]1C[C@H](N)[C@H](O)[C@H](C)O1 [daunorubicin, 5,12-Naphthacenedione, (8S-cis)-8-acetyl-10-[(3-amino-2,3 ,6-trideoxy-a-L-lyxo-hexanopyranosyl)oxy]-7,8 ,9,1 0-tetrahydro-6,8, 11-trihydroxy-10-methoxy-, hydrochloride] here?
**A.** markedly decreased susceptibility to killing

**Q.** Which “effect on PPT1 enzyme activity” value (PPT1 [4]; preincubation with 1 mM, control or PPT1 transfected cells) does the source give for O=S(=O)(F)Cc1ccccc1 [PMSF, phenylmethylsulfonyl fluoride] here?
**A.** did not affect the enzyme activity

**Q.** With AcGCVKIKK (Ac-GCVKIKK-NH2) as the molecule, how does the “effect on PPT1 activity” value (PPT1 [4]; cell extract preincubated 15 min at 37° C., Po, rhodopsin, GAP-43, Gα peptide substrates) read?
**A.** did not affect PPT activity

**Q.** For N[C@@H](Cc1ccc(N(CCCl)CCCl)cc1)C(=O)O [Melphalan, 4-[bis(2-chloroethyl)amino]-L-phenylalanine], which “patients showing a favorable response” value [6] is on record?
**A.** one third to one half

**Q.** With CN[C@@H]1C[C@H]2O[C@@](C)([C@@H]1OC)n1c3ccccc3c3c4c(c5c6ccccc6n2c5c31)C(=O)NC4 [staurosporine] as the molecule, how does the “susceptibility” value [5] read?
**A.** markedly decreased susceptibility to killing

**Q.** With “AcG-palmitoyl diamino propionate-VKIKK (DAP1) (peptide)” as the molecule, how does the inhibition in an in vitro assay (PPT activity) (% inhibition at 20 µM) [7] read?
**A.** 85

**Q.** For COc1cccc2c1C(=O)c1c(O)c3c(c(O)c1C2=O)C[C@@](O)(C(=O)CO)C[C@@H]3O[C@H]1C[C@H](N)[C@H](O)[C@H](C)O1 [Doxorubicin, 5,12-Naphthacenedione, (8 s-cis)-10-[(3-amino-2,3,6-trideoxy-a-L-lyxo-hexopyranosyl)oxy]-7,8,9,1 0-tetrahydro-6,8,11-trihydroxy-8-(hydroxyacetyl)-1-methoxy-hydrochloride], which “probability of developing impaired myocardial function” value (from here on “probability”) ([8]; 400 mg/m^2) is on record?
**A.** 3 to 5%

**Q.** What about the “probability” value ([8]; 450 mg/m^2) of the same molecule?
**A.** 5 to 8%

**Q.** And the “probability” value ([8]; 500 mg/m^2)?
**A.** 6 to 20%

**Q.** What about the “probability” value ([8]; total cumulative dose of 300 mg/m^2) of the same molecule?
**A.** 1 to 2%

**Q.** With CO[C@@]12[C@H](COC(N)=O)C3=C(C(=O)C(C)=C(N)C3=O)N1C[C@@H]1N[C@@H]12 [Mitomycin] as the molecule, how does the “fraction of dose excreted / recovered in the urine” value [1] read?
**A.** Approximately 10%

**Q.** With CC[C@H](C)[C@H]1NC(=O)[C@@H](NC(=O)[C@@H](CC(C)C)N(C)C(=O)[C@@H]2CCCN2C(=O)C(C)O)[C@@H](C)OC(=O)[C@H](Cc2ccc(OC)cc2)N(C)C(=O)[C@@H]2CCCN2C(=O)[C@H](CC(C)C)NC(=O)[C@@H](C)C(=O)[C@H](C(C)C)OC(=O)C[C@@H]1O (stereo partly shown) [Didemnin] as the molecule, how does the “mode of PPT1 inhibition” value (PPT1 [9]) read?
**A.** non-competitively inhibit PPT1 activity

**Q.** Which “cell death (MTT assay)” value [10] does the source give for O=c1cc(N2CCOCC2)oc2c(-c3ccccc3)cccc12 [LY-294002] here?
**A.** about 50%

**Q.** With MLCCMRR (also: [14C]palmitoyl thioester on one Cys, which not given here) [[14C]palmitoylated GAP43 peptide (MLCCMRR)] as the molecule, how does the “depalmitoylation by extract of PPT1-overexpressing cells against vector-transfected cells” value [7] read?
**A.** ~2.5 fold
